Experimental data reported in patent US20250248960A1, “Methods for Providing Rapid Relief of Motor Fluctuations in a Parkinson's Disease Patient” (priority 2012, published 2025).

Test system: Parkinson's disease patients
Assay: Phase 2 study: plasma levodopa concentrations compared to UPDRS scores (off/on state)
Type: in vivo, human
Settings: plasma levels vs UPDRS scores, FIG. 8
Experimental: The twenty four (24) patients treated in this study underwent serial evaluations of L-dopa plasma levels, motor response, and safety at each visit. The patients were administered the study drug in the OFF state with the serial evaluations starting prior to dosing and continuing for up to 180 minutes post-dose. Motor function was measured using a tapping test, the Unified Parkinson's Disease Rating Scale Part III (UPDRS III), and subjective evaluation of “meaningful” ON and OFF. Safety parameters monitored included pulmonary function, clinical laboratory data, EGCs, and vital signs (blood pressure, heart rate, and orthostatic blood pressure). This study was designed to measure the time, magnitude, and durability of pulmonary levodopa's effect on motor function, to evaluate the safety and tolerability of pulmonary levodopa in Parkinson's disease patients.
In FIG. 8, patient's plasma levodopa concentrations are being compared to UPDRS scores. UPDRS is a standard test for Parkinson's disease patients to test their response to drug treatment and their disease progression. […] As little as 200-400 ng/ml of levodopa plasma concentration makes the difference between being in the off state and being in the on state. […]

In the case of N[C@@H](Cc1ccc(O)c(O)c1)C(=O)O [L-Dopa, levodopa], the “levodopa plasma concentration difference between being in the off state and being in the on state” value is reported as 200 to 400 ng/mL.
